Data reported in USRE31071E, “6-Aza-3H-1,4-benzodiazepines” (Deutsche Gold- und Silber-Scheideanstalt vormals Roessler, priority 1971, dated 1982).

System: mice
Experiment: rotating rod test (ataxic activity)
Format: in vivo
Details: quotient of ataxic to anxiolytic activity, orally, should be as large as possible
Description: Furthermore, there is given in this table the ataxic activity. The ratio of ataxic activity to the anxiolytic activity is of the greatest significance in using a material as an anxiolytic agent. This quotient should be as large as possible since an ataxic activity is undesirable. Ataxic activity means that the coordination of the muscular movements is disturbed--ataxicdisturbance of the muscular coordination. This means at the dosage at which a marked anxiolytic acitvity is present there should not be found a noteworthy ataxice. The toxicity, in case the data exists above the ataxic activity, is no longer important since the amount which is toxic is always considerably higher than the amount at which 50% (ED50) of the animals have an ataxic effect. The ataxic effect was measured on mice on the pattern of the rotating rod.
In the rotating rod test the animals (mice) were firest placed on a rotating rod 15 minutes after the application of the test material and then were placed on the rotating rod every 15 minutes and the animals which fell down within 2 minutes measured positive. From the number of animals which fell down expressed in percent there were drawn time-effect curves and the areas defined by it entered as percent effect in a probability network, the dosage-effect-line prepared and the ED50 read off. The ED50 mg/kg body weight of the mouse again specifies the dosage at which 50% of all the animals show a typical ataxic effect.

Compared with CC1N=C(c2ccccc2)c2nc(Cl)ccc2NC1=O (racemic) [Example 4, 3-Methyl-5-phenyl-6-aza-7-chloro-1,2-dihydro-3H-1,4-benzodiazepinone-(2)], O=C1Nc2ccc(Cl)nc2C(c2ccccc2Cl)=NC1O (stereo not drawn) [Example 13, 3-Hydroxy-5-o-chlorophenyl-6-aza-7-chloro-1,2-dihydro-3H-1,4-benzodiazepinone-(2)] is higher in “ED50 Rotating Rod / ED50 Card. Shock” value: 4.3 for the first, 15.0 for the second.

Going from O=C1CN=C(c2ccccc2Cl)c2nc(Cl)ccc2N1 [Example 6, 5-(o-Chlorophenyl)-6-aza-7-chloro-1,2-dihydro-3H-1,4-benzodiazepinone-(2)] to O=C1CN=C(c2ccccc2F)c2nc(Cl)ccc2N1 [Example 10, 5-(-Fluorophenyl)-6-aza-7-chloro-1,2-dihydro-3H-1,4-benzodiazepinone-(2)], the “ED50 Rotating Rod / ED50 Card. Shock” value falls from 16.5 to 10.4.

Going from CN1C(=O)CN=C(c2ccccc2F)c2nc(Cl)ccc21 [Example 9, 1-Methyl-5-(o-fluorophenyl)-6-aza-7-chloro-1,2-dihydro-3H-1,4-benzodiazepinone-(2)] to CN1C(=O)CN=C(c2ccccc2Cl)c2nc(Cl)ccc21 [Example 21, 1-Methyl-5-(o-chlorophenyl)-6-aza-7-chloro-1,2-dihydro-3H-1,4-benzodiazepinone-(2)], the “ED50 Rotating Rod / ED50 Card. Shock” value rises from 6.1 to 10.2.

Compared with O=C(O)CCC(=O)OC1N=C(c2ccccc2Cl)c2nc(Cl)ccc2NC1=O (stereo not drawn) [Example 12], CC(=O)OC1N=C(c2ccccc2Cl)c2nc(Cl)ccc2N(C(C)=O)C1=O (stereo not drawn) [Example 15, 1-Acetyl-3-acetoxy-5-(o-chlorophenyl)-6-aza-7-chloro-1,2-dihydro-3H-1,4-benzodiazepinone-(2)] is lower in “ED50 Rotating Rod / ED50 Card. Shock” value: 13.5 for the first, 6.7 for the second.

First: CN1C(=O)CN=C(c2ccccc2)c2nc(Cl)ccc21 [Example 17, 1-Methyl-5-phenyl-6-aza-7-chloro-1,2-dihydro-3H-1,4-benzodiazepinone-(2)]
Second: C=CCN1C(=O)CN=C(c2ccccc2)c2nc(Cl)ccc21 [Example 18, 1-Allyl-5-phenyl-6-aza-7-chloro-1,2-dihydro-3H-1,4-benzodiazepinone-(2)]
The “ED50 Rotating Rod / ED50 Card. Shock” value of the first is lower: 6.2 for the first, 8.2 for the second.

Compared with O=C1CN=C(c2ccccc2)c2nc(Cl)ccc2N1CC1CC1 [Example 19], CN1C(=S)CN=C(c2ccccc2Cl)c2nc(Cl)ccc21 [Example 24, 1-Methyl-5-(o-chlorophenyl)-6-aza-7-chloro-1,2-dihydro-3H-1,4-benzodiazepinthione-(2)] is higher in “ED50 Rotating Rod / ED50 Card. Shock” value: 7.7 for the first, 12.5 for the second.

System: not given
Experiment: not given
Details: in words; cited from earlier work

For CN(C)CCOC(C)(c1ccccc1)c1ccc(Cl)cc1 (stereo not drawn) [chlorphenoxamine], the antihistamine activity is listed as “antihistamine activity reduced”.

System: not given
Experiment: not given
Details: J. Amer. Med. Ass. Vol. 170 (1959); cited from earlier work

In the case of CN(C)CCOC(C)(c1ccccc1)c1ccc(Cl)cc1 (stereo not drawn) [chlorphenoxamine], the anticholinergic activity is given as “strengthening of its anticholinergic activity”.

System: not given
Experiment: not given
Details: First Int. Pharmacological Meeting, Vol. 7; cited from earlier work

In the case of CC(NN)c1ccccc1 (stereo not drawn) [alpha phenyl-ethyl hydrazine], the “stimulating activity / sedative action” value is listed as “strong stimulating activity”.
